These results are taken from ChEMBL document CHEMBL2086262, “Ligand-based designing, in silico screening, and biological evaluation of new potent fructose-1,6-bisphosphatase (FBPase) inhibitors” (Eur J Med Chem, 2012).

Structures are written as SMILES.

The test in a line: Inhibition of human recombinant FBPase using fructose-1,6-biphosphate as substrate incubated for 3 mins prior to substrate addition by spectrophotometric analysis.
On to `O=C(O)CCc1c(C(=O)O)[nH]c2cc(Cl)cc(Cl)c12`, for which the IC50 is no less than 2500 nM. With `CCOc1cc2ncnc(Nc3cccc(-c4cnc(C)o4)c3)c2cc1OCC`, the IC50 is 4000 nM.

For the compound `COc1cc2c(Nc3cccc(-c4csc(C)n4)c3)ncnc2cc1OC1CCCC1`, the IC50 is greater than 10000 nM. As to `CCOc1cc2ncnc(Nc3cccc(-c4ccco4)c3)c2cc1OCC`, the IC50 came to 1400 nM. As to `CCOc1cc2nc(CC(C)C)nc(Nc3cccc(Br)c3)c2cc1OCC`, the half-maximal inhibitory concentration (IC50) was greater than 10000 nM. Turning to `CCOc1cc2ncnc(Nc3cccc(-c4nc(C(N)=O)cs4)c3)c2cc1OCC`, the IC50 was 830 nM. Regarding `CCOc1cc2nc(CN3CCCC3)nc(Nc3cccc(-c4csc(C)n4)c3)c2cc1OCC`, the IC50 came out at 6100 nM. Turning to `COc1cc2ncnc(Nc3cccc(-c4csc(C)n4)c3)c2cc1OC`, the IC50 came to 4400 nM. As for `CCCOc1cc2ncnc(Nc3cccc(-c4csc(C)n4)c3)c2cc1OC`, the concentration for half-maximal inhibition (IC50) is no less than 5600 nM. With `CCOc1cc2nc(-n3ccnc3)nc(Nc3cccc(-c4csc(C)n4)c3)c2cc1OCC`, the concentration for half-maximal inhibition (IC50) was determined as 770 nM. Consider `CCOc1cc2ncnc(Nc3cccc(Br)c3)c2cc1[N+](=O)[O-]`, for which the IC50 came out at 3600 nM. Under `CCOC(=O)c1[nH]c2cc(Cl)cc(Cl)c2c1CCC(=O)O` stands greater than 10000 nM. On to `CCOc1cc2nc(Cc3ccccc3)nc(Nc3cccc(-c4csc(C)n4)c3)c2cc1OCC`, for which the IC50 is greater than 10000 nM. For the compound `CCOc1cc2ncnc(Nc3cc(-c4csc(C)n4)ccc3Cl)c2cc1OCC`, the IC50 stood at 1700 nM.

As for `C#Cc1cccc(Nc2ncnc3cc(OCC)c(OCC)cc23)c1`, the IC50 was found to be 2400 nM. Then `CCOc1cc2ncnc(Nc3ccc(F)c(-c4csc(C)n4)c3)c2cc1OCC`, with 610 nM; and `O=C(O)Cc1c(C(=O)O)[nH]c2cc(Cl)cc(Cl)c12`, with greater than 10000 nM.

`COCCOc1ccc2ncnc(Nc3cccc(Br)c3)c2c1`: the IC50 turned out to be 2900 nM. Then `CCOc1cc2nc(CCl)nc(Nc3cccc(-c4csc(C)n4)c3)c2cc1OCC`, with 870 nM; and `CCOc1cc2ncnc(Nc3cccc(C(C)=O)c3)c2cc1OCC`, with greater than 10000 nM; and `COc1cc2nc(C)nc(Nc3cccc(Br)c3)c2cc1OC`, with 4500 nM. For the compound `CCOc1cc2ncnc(Nc3cc(-c4csc(C)n4)c(F)cc3F)c2cc1OCC`, the 50% inhibitory concentration (IC50) is greater than 10000 nM.

With `CCOc1cc2nc(-c3ccccc3)nc(Nc3cccc(Br)c3)c2cc1OCC`, the IC50 is greater than 10000 nM. Turning to `O=C(O)CCc1c(C(=O)NO)[nH]c2cc(Cl)cc(Cl)c12`, the IC50 is greater than 10000 nM. Take `CCOc1cc2nc(Cc3ccccc3)nc(Nc3cccc(Br)c3)c2cc1OCC`: the IC50 was greater than 10000 nM. As for `O=C(O)c1ccc2c(Nc3cccc(Br)c3)ncnc2c1`, the IC50 was greater than 10000 nM. Regarding `CCOc1cc2ncnc(Nc3cccc(-c4csc(-c5ccccc5)n4)c3)c2cc1OCC`, the IC50 was greater than 10000 nM. As for `CCOc1cc2ncnc(Nc3ccc(F)c(Cl)c3)c2cc1OCC`, the IC50 came out at 530 nM. As to `CCOc1cc2ncnc(Nc3cccc(-c4nc(C)cs4)c3)c2cc1OCC`, the half-inhibitory concentration (IC50) was found to be 650 nM.

Consider `CCOc1cc2c(Nc3cccc(-c4csc(C)n4)c3)ncnc2cc1OC`, for which the IC50 was determined as 1200 nM. `COCCOc1cc2ncnc(Nc3cccc(Br)c3)c2cc1OCCOC`: the concentration for half-maximal inhibition (IC50) is greater than 10000 nM. For the compound `CCOc1cc2ncnc(Nc3cccc(-c4cncs4)c3)c2cc1OCC`, the half-inhibitory concentration (IC50) came out at 980 nM. Take `CCOc1cc2nc(CS(C)(=O)=O)nc(Nc3cccc(-c4csc(C)n4)c3)c2cc1OCC`: the IC50 is 2100 nM. Turning to `Nc1ncnc2c1ncn2[C@@H]1O[C@H](COP(=O)(O)O)[C@@H](O)[C@H]1O` [ADENOSINE PHOSPHATE], the IC50 came out at 12300 nM. With `CCOc1cc2ncnc(Nc3cccc(Cl)c3)c2cc1OCC`, the IC50 is 1600 nM. With `CCOc1cc2ncnc(Nc3cccc(-c4cccc(C)c4)c3)c2cc1OCC`, the IC50 was greater than 10000 nM. With `CCOc1cc2nc(CN(C)C)nc(Nc3cccc(-c4csc(C)n4)c3)c2cc1OCC`, the half-maximal inhibitory concentration (IC50) was found to be 2000 nM. Then `CCOc1cc2ncnc(Nc3ccccc3)c2cc1OCC`, with greater than 10000 nM; and `O=C(CCc1c(C(=O)O)[nH]c2cc(Cl)cc(Cl)c12)NO`, with 1500 nM.

With `CCCCOc1ccc2ncnc(Nc3cccc(Br)c3)c2c1`, the IC50 is greater than 10000 nM. Then `CCOc1cc2ncnc(Nc3cc(-c4csc(C)n4)ccc3CC)c2cc1OCC`, with 2100 nM. For `CCOc1cc2ncnc(Nc3cccc(-c4csc(N)n4)c3)c2cc1OCC`, the concentration for half-maximal inhibition (IC50) stood at 3500 nM. As to `CCOc1cc2nc(CC(C)C)nc(Nc3cccc(-c4csc(C)n4)c3)c2cc1OCC`, the IC50 was found to be 1700 nM. Regarding `COc1cc2ncnc(Nc3cccc(Cl)c3)c2cc1OC` [TYRPHOSTIN AG-1478], the 50% inhibitory concentration (IC50) is 1300 nM. Consider `CCOc1cc2nc(CCCCl)nc(Nc3cccc(-c4csc(C)n4)c3)c2cc1OCC`, for which the IC50 was 4100 nM. Then `CCOc1cc2ncnc(Nc3cccc(-c4csc(C(N)=O)n4)c3)c2cc1OCC`, with 930 nM; and `CCOc1cc2ncnc(Nc3cccc(I)c3)c2cc1OCC`, with 2100 nM; and `CCOc1cc2ncnc(Nc3cccc(-c4ccccc4C)c3)c2cc1OCC`, with greater than 10000 nM.

For the compound `CCOc1cc2ncnc(Nc3cccc(-c4cocn4)c3)c2cc1OCC`, the half-inhibitory concentration (IC50) came out at 3600 nM.

Consider `CC(C)Oc1ccc2ncnc(Nc3cccc(Br)c3)c2c1`, for which the IC50 was greater than 10000 nM. For `CCOc1cc2ncnc(Nc3cccc(C#N)c3)c2cc1OCC`, the IC50 was greater than 10000 nM.

For the compound `CCOc1cc2nc(CC)nc(Nc3cccc(-c4csc(C)n4)c3)c2cc1OCC`, the IC50 turned out to be 1500 nM. Then `CCCOc1cc2ncnc(Nc3cccc(-c4csc(C)n4)c3)c2cc1OCC`, with 1000 nM.

On to `CCOc1cc2ncnc(Nc3cc(-c4csc(C)n4)ccc3F)c2cc1OCC`, for which the half-maximal inhibitory concentration (IC50) came to 480 nM. As to `CCOc1cc2ncnc(Nc3cccc(-c4cccnc4)c3)c2cc1OCC`, the half-inhibitory concentration (IC50) is 1400 nM.

Take `CCOc1cc2nc(C)nc(Nc3cccc(-c4csc(C)n4)c3)c2cc1OCC`: the IC50 worked out at 1000 nM. For the compound `CCCOc1cc2c(Nc3cccc(-c4csc(C)n4)c3)ncnc2cc1OC`, the IC50 is greater than 10000 nM.

As for `COc1cc2ncnc(Nc3cccc(Br)c3)c2cc1[N+](=O)[O-]`, the half-inhibitory concentration (IC50) is greater than 10000 nM.

For `CCC(C)Oc1cc2ncnc(Nc3cccc(-c4csc(C)n4)c3)c2cc1OC` (stereo not drawn), the IC50 was greater than 10000 nM. Turning to `CCOc1cc2ncnc(Nc3cccc(-c4csc(OC)n4)c3)c2cc1OCC`, the concentration for half-maximal inhibition (IC50) turned out to be 780 nM. Turning to `CCOc1cc2ncnc(Nc3cccc(Br)c3)c2cc1OCC`, the IC50 came out at 1700 nM. Then `CCOc1cc2nc(CN)nc(Nc3cccc(-c4csc(C)n4)c3)c2cc1OCC`, with 1500 nM.

With `O=C(O)CCCc1c(C(=O)O)[nH]c2cc(Cl)cc(Cl)c12`, the 50% inhibitory concentration (IC50) came out at 1000 nM.

Take `CCCc1nc(Nc2cccc(-c3csc(C)n3)c2)c2cc(OCC)c(OCC)cc2n1`: the concentration for half-maximal inhibition (IC50) came out at 1400 nM.

Consider `CCOc1cc2c(Nc3cccc(-c4csc(C)n4)c3)ncnc2cc1OC(C)C`, for which the IC50 is 420 nM. `CCOc1cc2nc(CC(=O)O)nc(Nc3cccc(-c4csc(C)n4)c3)c2cc1OCC`: the half-inhibitory concentration (IC50) came out at 960 nM. Consider `CCOc1cc2ncnc(Nc3cccc(-c4csc(C5CC5)n4)c3)c2cc1OCC`, for which the half-inhibitory concentration (IC50) turned out to be 830 nM. For `CCOc1cc2ncnc(Nc3cccc(-c4cncnc4)c3)c2cc1OCC`, the half-maximal inhibitory concentration (IC50) was 1200 nM.

As for `CCN(CC)c1nc(Nc2cccc(Br)c2)c2cc(OC)c(OC)cc2n1`, the IC50 is greater than 10000 nM. Consider `O=C(O)CCCCc1c(C(=O)O)[nH]c2cc(Cl)cc(Cl)c12`, for which the concentration for half-maximal inhibition (IC50) was found to be 1200 nM. In the case of `CCOc1cc2nc(CCl)nc(Nc3cccc(Br)c3)c2cc1OCC`, the IC50 was greater than 10000 nM.

`CCOc1cc2ncnc(Nc3ccc(F)c(-c4csc(C)n4)c3F)c2cc1OCC`: the IC50 was greater than 10000 nM.

Regarding `CCOc1cc2ncnc(Nc3cccc(-c4nc[nH]n4)c3)c2cc1OCC`, the half-maximal inhibitory concentration (IC50) is 640 nM. As to `COCCOc1cc2c(Nc3cccc(-c4csc(C)n4)c3)ncnc2cc1OC`, the half-inhibitory concentration (IC50) was greater than 10000 nM. Under `CCOc1cc2ncnc(Nc3cccc(C(=O)CBr)c3)c2cc1OCC` stands greater than 10000 nM. `O=[N+]([O-])c1cc2c(Nc3cccc(Br)c3)ncnc2cc1Cl`: the half-maximal inhibitory concentration (IC50) is greater than 10000 nM. Under `CCOc1cc2ncnc(Nc3cccc(-c4csc(COC)n4)c3)c2cc1OCC` stands 7300 nM.

Regarding `COC(=O)CCc1c(C(=O)O)[nH]c2cc(Cl)cc(Cl)c12`, the 50% inhibitory concentration (IC50) was 7000 nM. Consider `CCOc1cc2nc(CN(CC)CC)nc(Nc3cccc(Br)c3)c2cc1OCC`, for which the IC50 was greater than 10000 nM. In the case of `CCOc1cc2nc(CS(C)(=O)=O)nc(Nc3cccc(Br)c3)c2cc1OCC`, the IC50 was greater than 10000 nM.

Consider `Cc1nc(-c2cccc(Nc3ncnc4ccccc34)c2)cs1`, for which the concentration for half-maximal inhibition (IC50) was greater than 10000 nM.

With `CCOc1ccc(-c2csc(C)n2)cc1Nc1ncnc2cc(OCC)c(OCC)cc12`, the half-maximal inhibitory concentration (IC50) stood at 1800 nM. As for `CCOc1cc2nc(C(C)C)nc(Nc3cccc(-c4csc(C)n4)c3)c2cc1OCC`, the 50% inhibitory concentration (IC50) came to 5000 nM.

On to `CCOc1cc2ncnc(Nc3cccc(-c4csc(C(=O)O)n4)c3)c2cc1OCC`, for which the IC50 is greater than 10000 nM.

As for `CCOc1cc2ncnc(Nc3ccc(Cl)c(C)c3)c2cc1OCC`, the IC50 was greater than 10000 nM.

`CCOc1cc2ncnc(Nc3ccc(Cl)c(-c4csc(C)n4)c3)c2cc1OCC`: the concentration for half-maximal inhibition (IC50) was found to be 5300 nM. For the compound `CCOc1cc2ncnc(Nc3cccc(F)c3)c2cc1OCC`, the IC50 was determined as 9200 nM.

On to `O=C(O)CCc1c(CO)[nH]c2cc(Cl)cc(Cl)c12`, for which the IC50 was greater than 10000 nM.

Turning to `COc1cc2c(Nc3cccc(-c4csc(C)n4)c3)ncnc2cc1OC(C)(C)C`, the half-inhibitory concentration (IC50) came to 1300 nM. For the compound `CCOc1cc2nc(CCN)nc(Nc3cccc(-c4csc(C)n4)c3)c2cc1OCC`, the half-maximal inhibitory concentration (IC50) came to 220 nM. With `NC(=O)CCc1c(C(=O)O)[nH]c2cc(Cl)cc(Cl)c12`, the concentration for half-maximal inhibition (IC50) turned out to be 2200 nM. Then `CCOc1nc(-c2cccc(Nc3ncnc4cc(OCC)c(OCC)cc34)c2)cs1`, with 6100 nM; and `CCOc1cc2ncnc(Nc3cccc(-c4ccc(C)cc4)c3)c2cc1OCC`, with greater than 10000 nM; and `CCOc1cc2nc(C(F)(F)F)nc(Nc3cccc(-c4csc(C)n4)c3)c2cc1OCC`, with greater than 10000 nM. Turning to `CCOc1cc2ncnc(Nc3ccc(Cl)c(Cl)c3)c2cc1OCC`, the half-inhibitory concentration (IC50) was greater than 10000 nM. With `CCOc1cc2ncnc(Nc3cccc(-c4csc(NN)n4)c3)c2cc1OCC`, the IC50 turned out to be 4500 nM.

As for `CN(C)C(=O)CCc1c(C(=O)O)[nH]c2cc(Cl)cc(Cl)c12`, the IC50 was determined as 1700 nM.

For the compound `CCOc1cc2ncnc(Nc3cccc(-c4csc(C)n4)c3)c2cc1OC`, the half-maximal inhibitory concentration (IC50) came out at 3400 nM.
